In publication PMC9321722, “Tailored Pyridoxal Probes Unravel Novel Cofactor‐Dependent Targets and Antibiotic Hits in Critical Bacterial Pathogens” (Angewandte Chemie (International Ed. in English), 2022):

Tests used:
pdxK = molecular target: T1, pdxK (Escherichia coli, UniProt P40191); experiment: UV/Vis phosphorylation assay; format: biochemical
T1 construct: pyridoxal kinase used in UV/Vis phosphorylation assay

PA2683 [1] = molecular target: T2, PA2683 (Pseudomonas aeruginosa, UniProt Q9I0F5); experiment: coupled NADH assay and LC-MS/MS of products; format: biochemical
T2 sequence (Q9I0F5 1-320): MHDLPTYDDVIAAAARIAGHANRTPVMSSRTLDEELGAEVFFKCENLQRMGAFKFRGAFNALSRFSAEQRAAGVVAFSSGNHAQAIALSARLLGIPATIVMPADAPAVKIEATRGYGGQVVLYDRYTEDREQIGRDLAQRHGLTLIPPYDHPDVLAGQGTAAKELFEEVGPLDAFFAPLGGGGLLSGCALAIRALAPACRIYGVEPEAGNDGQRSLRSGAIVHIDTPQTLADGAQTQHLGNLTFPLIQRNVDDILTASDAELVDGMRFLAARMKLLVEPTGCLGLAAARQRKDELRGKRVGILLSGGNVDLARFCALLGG

SaPLK = molecular target: T3, SaPLK (Staphylococcus aureus, UniProt Q5HI96); experiment: UV/Vis phosphorylation assay; format: biochemical
T3 construct: gene pdxK; pyridoxal kinase used in UV/Vis phosphorylation assay
T3 sequence (Q5HI96 1-276): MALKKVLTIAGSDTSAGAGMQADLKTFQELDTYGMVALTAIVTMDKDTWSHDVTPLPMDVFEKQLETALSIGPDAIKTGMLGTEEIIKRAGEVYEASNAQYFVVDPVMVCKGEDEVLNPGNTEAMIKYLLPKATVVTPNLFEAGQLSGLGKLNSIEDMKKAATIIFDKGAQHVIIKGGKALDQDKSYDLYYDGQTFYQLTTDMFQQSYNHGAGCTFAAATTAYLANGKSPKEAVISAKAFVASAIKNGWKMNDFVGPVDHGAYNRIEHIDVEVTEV

[2] = molecular target: T4, Orn/Lys/Arg decarboxylase (A0A0H2XII6) (Staphylococcus aureus, UniProt A0A0H2XII6); experiment: LC-MS/MS quantification of cadaverine formed by overexpressed enzyme; also competitive PL2 profiling in cells; format: biochemical
T4 construct: gene SAUSA300_0458
T4 sequence (A0A0H2XII6 entry or part of it): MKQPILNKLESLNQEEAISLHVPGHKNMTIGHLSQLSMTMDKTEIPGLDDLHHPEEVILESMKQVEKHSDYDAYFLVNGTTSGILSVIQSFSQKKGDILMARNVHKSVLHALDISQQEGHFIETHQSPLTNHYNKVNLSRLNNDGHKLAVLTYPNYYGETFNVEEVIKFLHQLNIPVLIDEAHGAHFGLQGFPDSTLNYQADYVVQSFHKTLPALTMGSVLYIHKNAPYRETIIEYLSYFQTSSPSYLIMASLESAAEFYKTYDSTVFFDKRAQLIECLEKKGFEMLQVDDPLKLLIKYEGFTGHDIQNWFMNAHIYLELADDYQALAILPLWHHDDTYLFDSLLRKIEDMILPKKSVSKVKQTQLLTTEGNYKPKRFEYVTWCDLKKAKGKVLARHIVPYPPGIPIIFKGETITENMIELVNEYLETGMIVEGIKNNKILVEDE

[3] = molecular target: T5, A0A0H2XHJ5 (cysteine desulfurase, sufS) (Staphylococcus aureus, UniProt A0A0H2XHJ5); experiment: LC-MS quantification of alanine formed from L-Cys by overexpressed enzyme; format: biochemical
T5 construct: with sufU
T5 sequence (A0A0H2XHJ5 entry or part of it): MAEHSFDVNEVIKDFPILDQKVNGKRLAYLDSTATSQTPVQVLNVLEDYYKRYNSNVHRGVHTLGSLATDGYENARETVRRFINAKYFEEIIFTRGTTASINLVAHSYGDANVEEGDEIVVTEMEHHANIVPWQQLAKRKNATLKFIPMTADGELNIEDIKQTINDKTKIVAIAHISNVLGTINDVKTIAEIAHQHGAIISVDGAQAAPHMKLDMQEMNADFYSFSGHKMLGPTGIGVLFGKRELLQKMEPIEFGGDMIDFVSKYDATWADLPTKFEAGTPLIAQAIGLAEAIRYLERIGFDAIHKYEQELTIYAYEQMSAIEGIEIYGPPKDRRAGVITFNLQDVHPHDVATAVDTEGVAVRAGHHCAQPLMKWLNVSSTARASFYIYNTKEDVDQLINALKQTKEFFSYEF
T5 sequence (A0A0H2XJC0 entry or part of it, further chain): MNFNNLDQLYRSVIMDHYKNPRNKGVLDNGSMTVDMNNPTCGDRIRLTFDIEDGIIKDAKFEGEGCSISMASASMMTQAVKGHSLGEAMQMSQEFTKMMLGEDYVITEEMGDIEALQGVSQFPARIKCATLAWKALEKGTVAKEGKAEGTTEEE

[4] = molecular target: T6, PA3659 (aminotransferase) (Pseudomonas aeruginosa, UniProt Q9HXY0); experiment: intact protein MS; UV/Vis of holo-enzyme; format: binding
T6 sequence (Q9HXY0 1-402): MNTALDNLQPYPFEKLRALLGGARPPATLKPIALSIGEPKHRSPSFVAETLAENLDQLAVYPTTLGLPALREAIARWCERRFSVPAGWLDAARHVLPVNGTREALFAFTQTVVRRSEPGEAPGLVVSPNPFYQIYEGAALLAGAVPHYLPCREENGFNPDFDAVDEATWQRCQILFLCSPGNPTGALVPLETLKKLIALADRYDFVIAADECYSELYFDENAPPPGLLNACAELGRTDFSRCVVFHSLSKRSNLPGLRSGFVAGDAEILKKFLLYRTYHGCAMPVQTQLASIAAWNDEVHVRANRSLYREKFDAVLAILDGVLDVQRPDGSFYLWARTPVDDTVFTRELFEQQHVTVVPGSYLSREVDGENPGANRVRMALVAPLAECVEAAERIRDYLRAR

[5] = molecular target: T7, PA3798 (aminotransferase) (Pseudomonas aeruginosa, UniProt Q9HXJ9); experiment: intact protein MS; UV/Vis of holo-enzyme; format: binding
T7 sequence (Q9HXJ9 1-382): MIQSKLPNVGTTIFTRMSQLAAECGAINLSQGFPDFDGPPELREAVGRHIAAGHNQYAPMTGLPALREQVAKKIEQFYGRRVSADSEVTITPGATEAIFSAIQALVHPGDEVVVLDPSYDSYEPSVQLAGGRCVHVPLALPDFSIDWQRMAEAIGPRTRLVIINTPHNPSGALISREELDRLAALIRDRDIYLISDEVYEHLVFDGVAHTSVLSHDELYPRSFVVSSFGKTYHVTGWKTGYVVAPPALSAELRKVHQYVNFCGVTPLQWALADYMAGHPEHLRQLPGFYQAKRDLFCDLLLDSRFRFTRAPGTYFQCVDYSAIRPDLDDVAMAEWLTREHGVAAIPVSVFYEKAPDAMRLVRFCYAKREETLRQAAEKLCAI

ydcR = ydcR (Escherichia coli, UniProt P77730); experiment: intact protein MS of overexpressed protein; format: binding
ydcR, sequence (P77730 whole entry): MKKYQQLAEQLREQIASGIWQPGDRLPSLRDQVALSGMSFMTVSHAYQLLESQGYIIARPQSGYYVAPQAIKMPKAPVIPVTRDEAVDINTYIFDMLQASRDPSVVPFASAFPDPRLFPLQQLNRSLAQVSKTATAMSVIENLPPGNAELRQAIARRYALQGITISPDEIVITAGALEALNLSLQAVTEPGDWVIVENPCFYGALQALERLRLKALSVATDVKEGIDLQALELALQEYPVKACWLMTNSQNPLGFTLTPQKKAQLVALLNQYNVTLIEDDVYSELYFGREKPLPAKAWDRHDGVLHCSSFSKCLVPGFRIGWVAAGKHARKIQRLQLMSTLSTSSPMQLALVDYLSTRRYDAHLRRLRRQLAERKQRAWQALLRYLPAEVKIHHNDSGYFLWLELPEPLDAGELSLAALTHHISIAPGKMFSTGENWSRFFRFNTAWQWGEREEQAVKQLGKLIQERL

PA2683 [6] = molecular target: T2, PA2683; experiment: intact protein MS of overexpressed protein; format: binding
PA2683 [7] = molecular target: T2, PA2683; experiment: acceleration of serine/threonine dehydratase activity of overexpressed enzyme; format: biochemical

T1 sequence (P40191 whole entry): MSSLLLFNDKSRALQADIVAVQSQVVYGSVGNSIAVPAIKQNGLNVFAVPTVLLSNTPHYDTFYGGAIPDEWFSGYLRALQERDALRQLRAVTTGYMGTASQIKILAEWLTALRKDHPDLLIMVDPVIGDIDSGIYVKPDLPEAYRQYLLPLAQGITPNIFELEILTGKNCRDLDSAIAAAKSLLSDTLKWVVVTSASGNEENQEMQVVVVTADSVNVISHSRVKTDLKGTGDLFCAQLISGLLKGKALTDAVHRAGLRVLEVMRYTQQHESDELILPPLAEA

C#CCCc1ncc(CO)c(C=O)c1O [PL2]
UV/Vis phosphorylation assay (pdxK): we observed phosphorylation of all probes except for PL11 and PL12

N[C@@H](CO)C(=O)O [L-serine]
coupled NADH assay and LC-MS/MS of products (PA2683 [1]): The enzyme was overexpressed and indeed turnover of L‐serine was observed together with NADH consumption within a coupled assay

C#Cc1nc(C)c(O)c(C=O)c1CO [PL10]
UV/Vis phosphorylation assay (pdxK): we observed phosphorylation of all probes except for PL11 and PL12 | UV/Vis phosphorylation assay (SaPLK): we observed phosphorylation of all probes except for PL11 and PL12

NNCCc1ccccc1 [phenelzine]
IC50 [2]: 53.1 ± 1.05 µM | IC50 [3]: 14.7 ± 1.22 µM

Cc1ncc(COP(=O)(O)O)c(C=O)c1O [pyridoxal phosphate]
intact protein MS; UV/Vis of holo-enzyme [4]: PLP binding of all overexpressed enzymes was confirmed via intact protein MS (IP‐MS, Figure 4A) | intact protein MS; UV/Vis of holo-enzyme [5]: PLP binding of all overexpressed enzymes was confirmed via intact protein MS (IP‐MS, Figure 4A) | intact protein MS of overexpressed protein (ydcR): PLP binding of all overexpressed enzymes was confirmed via intact protein MS (IP‐MS, Figure 4A) | intact protein MS of overexpressed protein (PA2683 [6]): PLP binding of all overexpressed enzymes was confirmed via intact protein MS (IP‐MS, Figure 4A)

Nc1ncnc2c1ncn2[C@@H]1O[C@H](COP(=O)(O)O)[C@@H](O)[C@H]1O [adenosine monophosphate]
acceleration of serine/threonine dehydratase activity of overexpressed enzyme (PA2683 [7]): the catalysis was accelerated by adding adenosine monophosphate (AMP) and magnesium
